In PubChem BioAssay AID248 (DTP/NCI, 2004):
Values joined by “and” are separate entries in the source; they are usually repeats but may differ in a detail not shown here. Identical values can stand only once. Inconclusive results and toxic doses are left out.

Test system: L1210 leukemia ip in BDF1 mice, survival T/C
Assay: NCI In Vivo Anticancer Drug Screen. Data for tumor model L1210 Leukemia (intraperitoneal) in B6D2F1 (BDF1) mice
Conditions: endpoint: mean survival time, higher = longer survival
Outline: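 Each compound was tested against a transplantable tumor grown in mice. The endpoint was survival, with treated animals benchmarked against vehicle controls as a simple ratio.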

[1] = dose: 100.0 mg/kg/injection, schedule: Q04DX003 (ip), vehicle: saline with Tween-80
[2] = dose: 100.0 mg/kg/injection, schedule: Q04DX003 (ip), vehicle: saline
[3] = dose: 200.0 mg/kg/injection, schedule: Q04DX003 (ip), vehicle: saline
[4] = dose: 25.0 mg/kg/injection, schedule: Q01DX009 (ip), vehicle: saline with Tween-80
[5] = dose: 50.0 mg/kg/injection, schedule: Q04DX002 (ip), vehicle: saline with Tween-80
[6] = dose: 100.0 mg/kg/injection, schedule: Q01DX009 (ip), vehicle: saline with Tween-80
[7] = dose: 100.0 mg/kg/injection, schedule: Q04DX002 (ip), vehicle: saline with Tween-80

With Oc1ccc(C2C=CCC2)cc1C1C=CCC1 (centres undefined) the T/C (dose: 100.0 mg/kg/injection, schedule: Q01DX009 (ip), vehicle: Klucel (hydroxypropylcellulose) (HPC)) was 105 % of control, the T/C (dose: 100.0 mg/kg/injection, schedule: Q04DX003 (ip), vehicle: Klucel (hydroxypropylcellulose) (HPC)) was 100 % of control and the T/C (dose: 200.0 mg/kg/injection, schedule: Q01DX009 (ip), vehicle: Klucel (hydroxypropylcellulose) (HPC)) was 100 % of control. The T/C (dose: 200.0 mg/kg/injection, schedule: Q04DX003 (ip), vehicle: Klucel (hydroxypropylcellulose) (HPC)) was 96 % of control, the T/C (dose: 400.0 mg/kg/injection, schedule: Q01DX009 (ip), vehicle: Klucel (hydroxypropylcellulose) (HPC)) was 94 % of control and the T/C (dose: 400.0 mg/kg/injection, schedule: Q04DX003 (ip), vehicle: Klucel (hydroxypropylcellulose) (HPC)) was 109 % of control.
For CCCCC(CC)CN(CC(CC)CCCC)c1nc(Cl)nc(N(CC(CC)CCCC)CC(CC)CCCC)n1 (centres undefined), the T/C (dose: 25.6 mg/kg/injection, schedule: Q04DX002 (ip), vehicle: saline with Tween-80) was 91 % of control, the T/C (dose: 64.0 mg/kg/injection, schedule: Q04DX002 (ip), vehicle: saline with Tween-80) was 97 % of control and the T/C [1] was 92 % of control. The T/C (dose: 160.0 mg/kg/injection, schedule: Q04DX002 (ip), vehicle: saline with Tween-80) was 91 % of control, the T/C (dose: 200.0 mg/kg/injection, schedule: Q04DX003 (ip), vehicle: saline with Tween-80) was 94 % of control and the T/C (dose: 400.0 mg/kg/injection, schedule: Q04DX002 (ip), vehicle: saline with Tween-80) was 91 % of control. For the same compound, the T/C (dose: 400.0 mg/kg/injection, schedule: Q04DX003 (ip), vehicle: saline with Tween-80) was 92 % of control.
O=C1OC(=C(Br)Br)C2C3C=CC(C3)C12 (centres undefined) was tested, and the T/C [2] was 98 % of control and the T/C [3] was 107 % of control.
Cc1ccc(S(=O)(=O)Cl)cc1C(=O)O was tested, and the T/C (dose: 12.5 mg/kg/injection, schedule: Q01DX001 (ip), vehicle: saline with Tween-80) was 92 % of control and 99 % of control, the T/C (dose: 25.0 mg/kg/injection, schedule: Q01DX001 (ip), vehicle: saline with Tween-80) was 99 % of control and 87 % of control and the T/C [4] was 102 % of control. The T/C (dose: 25.0 mg/kg/injection, schedule: Q04DX003 (ip), vehicle: saline with Tween-80) was 103 % of control, the T/C (dose: 50.0 mg/kg/injection, schedule: Q01DX009 (ip), vehicle: saline with Tween-80) was 93 % of control and the T/C [5] was 96 % of control and 108 % of control. For the same compound, the T/C (dose: 50.0 mg/kg/injection, schedule: Q04DX003 (ip), vehicle: saline with Tween-80) was 97 % of control, the T/C (dose: 100.0 mg/kg/injection, schedule: Q01DX001 (ip), vehicle: saline with Tween-80) was 94 % of control and 95 % of control and the T/C [6] was 96 % of control. For the same compound, the T/C [7] was 104 % of control and 86 % of control and 90 % of control and the T/C [1] was 98 % of control.
CCCC(=O)Oc1ccc(/C=N/NC(N)=S)nc1 was tested, and the T/C [6] was 119 % of control, the T/C [7] was 113 % of control and the T/C (dose: 200.0 mg/kg/injection, schedule: Q01DX009 (ip), vehicle: saline with Tween-80) was 156 % of control. The T/C (dose: 400.0 mg/kg/injection, schedule: Q01DX009 (ip), vehicle: saline with Tween-80) was 176 % of control and the T/C (dose: 600.0 mg/kg/injection, schedule: Q01DX009 (ip), vehicle: saline with Tween-80) was 109 % of control.
CN1C(=O)CC[n+]2ccccc21 was tested, and the T/C [2] was 101 % of control, the T/C [3] was 104 % of control and the T/C (dose: 400.0 mg/kg/injection, schedule: Q04DX003 (ip), vehicle: saline) was 86 % of control.
With C[CH2][Hg][I] the T/C (dose: 25.0 mg/kg/injection, schedule: Q04DX002 (ip), vehicle: saline with Tween-80) was 95 % of control and the T/C [5] was 97 % of control.
In the case of Cc1cc(SC#N)ccc1O, the T/C (dose: 3.0 mg/kg/injection, schedule: Q01DX009 (ip), vehicle: saline with Tween-80) is reported as 94 % of control, the T/C (dose: 6.0 mg/kg/injection, schedule: Q01DX009 (ip), vehicle: saline with Tween-80) is reported as 102 % of control and the T/C (dose: 12.0 mg/kg/injection, schedule: Q01DX009 (ip), vehicle: saline with Tween-80) is reported as 102 % of control. The T/C [4] was 102 % of control, the T/C (dose: 25.0 mg/kg/injection, schedule: Q04DX002 (ip), vehicle: other) was 93 % of control and the T/C (dose: 50.0 mg/kg/injection, schedule: Q04DX002 (ip), vehicle: other) was 93 % of control. The T/C (dose: 100.0 mg/kg/injection, schedule: Q04DX002 (ip), vehicle: other) was 97 % of control.
O=C(O)c1cc(N=Nc2cccc([N+](=O)[O-])c2)ccc1O was tested, and the T/C (dose: 62.5 mg/kg/injection, schedule: Q01DX001 (ip), vehicle: Klucel (hydroxypropylcellulose) (HPC)) was 97 % of control and the T/C (dose: 125.0 mg/kg/injection, schedule: Q01DX001 (ip), vehicle: Klucel (hydroxypropylcellulose) (HPC)) was 92 % of control.
With COC(=O)[C@H]1[C@H]2C[C@@H]3c4[nH]c5cc(OC)ccc5c4CCN3C[C@H]2C[C@@H](OC(=O)c2cccc(N(C)C)c2)[C@@H]1OC the T/C (dose: 0.78 mg/kg/injection, schedule: Q01DX009 (ip), vehicle: Klucel (hydroxypropylcellulose) (HPC)) was 102 % of control, the T/C (dose: 0.78 mg/kg/injection, schedule: Q04DX003 (ip), vehicle: Klucel (hydroxypropylcellulose) (HPC)) was 94 % of control and the T/C (dose: 1.56 mg/kg/injection, schedule: Q01DX009 (ip), vehicle: Klucel (hydroxypropylcellulose) (HPC)) was 102 % of control. For the same compound, the T/C (dose: 1.56 mg/kg/injection, schedule: Q04DX003 (ip), vehicle: Klucel (hydroxypropylcellulose) (HPC)) was 107 % of control, the T/C (dose: 3.12 mg/kg/injection, schedule: Q01DX009 (ip), vehicle: Klucel (hydroxypropylcellulose) (HPC)) was 96 % of control and the T/C (dose: 3.12 mg/kg/injection, schedule: Q04DX003 (ip), vehicle: Klucel (hydroxypropylcellulose) (HPC)) was 104 % of control. The T/C (dose: 6.25 mg/kg/injection, schedule: Q01DX009 (ip), vehicle: Klucel (hydroxypropylcellulose) (HPC)) was 93 % of control, the T/C (dose: 6.25 mg/kg/injection, schedule: Q04DX003 (ip), vehicle: Klucel (hydroxypropylcellulose) (HPC)) was 104 % of control and the T/C (dose: 12.5 mg/kg/injection, schedule: Q04DX003 (ip), vehicle: Klucel (hydroxypropylcellulose) (HPC)) was 100 % of control.
